Assay results as given in patent US9981959B2, “Thiazolyl and oxazolyl urea, thiourea, guanidine and cyanoguanidine compounds as TrkA kinase inhibitors” (Array BioPharma Inc., priority 2012, dated 2018).

Legend:
Test in all cases: KinaseProfiler off-target kinase profiling
Assay type in all cases: biochemical
Settings in all cases: 10 μM, ATP near Km
EGFR = target: T1, EGFR (Homo sapiens, UniProt P00533)
T1 construct: purchased Millipore, Inc. (KinaseProfiler service)
Outline: (§1)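 Single-point screen at 10 μM compound, run in duplicate with ATP near each kinase's Km. Values are percent of control (POC), averaged over the two replicates.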

Axl = target: T2, Axl (Homo sapiens, UniProt P30530)
T2 construct: purchased Millipore (KinaseProfiler service)
Outline: as §1

HIPK3 = target: T3, HIPK3 (Homo sapiens, UniProt Q9H422)
T3 construct: purchased Millipore, Inc. (KinaseProfiler service)
Outline: as §1

CLK2 = target: T4, CLK2 (Homo sapiens, UniProt P49760)
T4 construct: purchased Millipore, Inc. (KinaseProfiler service)
Outline: as §1

KIT = target: T5, KIT (Homo sapiens, UniProt P10721)
T5 construct: purchased Millipore, Inc. (KinaseProfiler service)
Outline: as §1

EphB3 = target: T6, EphB3 (Homo sapiens, UniProt P54753)
T6 construct: purchased Millipore, Inc. (KinaseProfiler service)
Outline: as §1

PKCgamma = target: T7, PKCgamma (Homo sapiens, UniProt P05129)
T7 construct: purchased Millipore, Inc. (KinaseProfiler service)
Outline: as §1

FGFR4 = target: T8, FGFR4 (Homo sapiens, UniProt P22455)
T8 construct: purchased Millipore, Inc. (KinaseProfiler service)
Outline: as §1

MSSK1 = target: T9, MSSK1 (Homo sapiens, UniProt Q9UPE1)
T9 construct: purchased Millipore, Inc. (KinaseProfiler service)
Outline: as §1

ULK2 = target: T10, ULK2 (Homo sapiens, UniProt Q8IYT8)
T10 construct: purchased Millipore, Inc. (KinaseProfiler service)
Outline: as §1

MuSK = target: T11, MuSK (Homo sapiens, UniProt O15146)
T11 construct: purchased Millipore, Inc. (KinaseProfiler service)
Outline: as §1

ALK = target: T12, ALK (Homo sapiens, UniProt Q9UM73)
T12 construct: purchased Millipore (KinaseProfiler service)
Outline: as §1

JAK2 = target: T13, JAK2 (Homo sapiens, UniProt O60674)
T13 construct: purchased Millipore, Inc. (KinaseProfiler service)
Outline: as §1

KDR = target: T14, KDR (Homo sapiens, UniProt P35968)
T14 construct: purchased Millipore, Inc. (KinaseProfiler service)
Outline: as §1

DDR2 = target: T15, DDR2 (Homo sapiens, UniProt Q16832)
T15 construct: purchased Millipore, Inc. (KinaseProfiler service)
Outline: as §1

PKD1 = target: T16, PKD1 (Homo sapiens, UniProt Q15139)
T16 construct: purchased Millipore, Inc. (KinaseProfiler service)
Outline: as §1

Plk1 = target: T17, Plk1 (Homo sapiens, UniProt P53350)
T17 construct: purchased Millipore, Inc. (KinaseProfiler service)
Outline: as §1

CSK = target: T18, CSK (Homo sapiens, UniProt P41240)
T18 construct: purchased Millipore, Inc. (KinaseProfiler service)
Outline: as §1

eEF-2K = target: T19, eEF-2K (Homo sapiens, UniProt O00418)
T19 construct: purchased Millipore, Inc. (KinaseProfiler service)
Outline: as §1

NEK11 = target: T20, NEK11 (Homo sapiens, UniProt Q8NG66)
T20 construct: purchased Millipore, Inc. (KinaseProfiler service)
Outline: as §1

PKCeta = target: T21, PKCeta (Homo sapiens, UniProt P24723)
T21 construct: purchased Millipore, Inc. (KinaseProfiler service)
Outline: as §1

DAPK2 = target: T22, DAPK2 (Homo sapiens, UniProt Q9UIK4)
T22 construct: purchased Millipore, Inc. (KinaseProfiler service)
Outline: as §1

CAMK1d = target: T23, CAMK1d (Homo sapiens, UniProt Q8IU85)
T23 construct: purchased Millipore (KinaseProfiler service)
Outline: as §1

PAK6 = target: T24, PAK6 (Homo sapiens, UniProt Q9NQU5)
T24 construct: purchased Millipore, Inc. (KinaseProfiler service)
Outline: as §1

Flt3 = target: T25, Flt3 (Homo sapiens, UniProt P36888)
T25 construct: purchased Millipore, Inc. (KinaseProfiler service)
Outline: as §1

TAO1 = target: T26, TAO1 (Homo sapiens, UniProt Q7L7X3)
T26 construct: purchased Millipore, Inc. (KinaseProfiler service)
Outline: as §1

PRKG1beta = target: T27, PRKG1beta (Homo sapiens, UniProt Q13976)
T27 construct: purchased Millipore, Inc. (KinaseProfiler service)
Outline: as §1

Rse = target: T28, Rse (Homo sapiens, UniProt Q06418)
T28 construct: purchased Millipore, Inc. (KinaseProfiler service)
Outline: as §1

MAP3K5 = target: T29, MAP3K5 (Homo sapiens, UniProt Q99683)
T29 construct: purchased Millipore, Inc. (KinaseProfiler service)
Outline: as §1

CK1delta = target: T30, CK1delta (Homo sapiens, UniProt P48730)
T30 construct: purchased Millipore, Inc. (KinaseProfiler service)
Outline: as §1

PRKG1alpha = target: T31, PRKG1alpha (Homo sapiens, UniProt Q13976)
T31 construct: purchased Millipore, Inc. (KinaseProfiler service)
Outline: as §1

Fms = target: T32, Fms (Homo sapiens, UniProt P07333)
T32 construct: purchased Millipore, Inc. (KinaseProfiler service)
Outline: as §1

Flt1 = target: T33, Flt1 (Homo sapiens, UniProt P17948)
T33 construct: purchased Millipore, Inc. (KinaseProfiler service)
Outline: as §1

PKCdelta = target: T34, PKCdelta (Homo sapiens, UniProt Q05655)
T34 construct: purchased Millipore, Inc. (KinaseProfiler service)
Outline: as §1

TLK2 = target: T35, TLK2 (Homo sapiens, UniProt Q86UE8)
T35 construct: purchased Millipore, Inc. (KinaseProfiler service)
Outline: as §1

CHK1 = target: T36, CHK1 (Homo sapiens, UniProt O14757)
T36 construct: purchased Millipore, Inc. (KinaseProfiler service)
Outline: as §1

Bmx = target: T37, Bmx (Homo sapiens, UniProt P51813)
T37 construct: purchased Millipore (KinaseProfiler service)
Outline: as §1

JNK2alpha2 = target: T38, JNK2alpha2 (Homo sapiens, UniProt P45984)
T38 construct: purchased Millipore, Inc. (KinaseProfiler service)
Outline: as §1

TSSK1 = target: T39, TSSK1 (Homo sapiens, UniProt Q9BXA7)
T39 construct: purchased Millipore, Inc. (KinaseProfiler service)
Outline: as §1

CDK3/cyclinE = target: T40, CDK3/cyclinE (Homo sapiens, UniProt Q00526)
T40 construct: purchased Millipore, Inc. (KinaseProfiler service)
Outline: as §1

JAK3 = target: T41, JAK3 (Homo sapiens, UniProt P52333)
T41 construct: purchased Millipore, Inc. (KinaseProfiler service)
Outline: as §1

T15 sequence (Q16832 22-855): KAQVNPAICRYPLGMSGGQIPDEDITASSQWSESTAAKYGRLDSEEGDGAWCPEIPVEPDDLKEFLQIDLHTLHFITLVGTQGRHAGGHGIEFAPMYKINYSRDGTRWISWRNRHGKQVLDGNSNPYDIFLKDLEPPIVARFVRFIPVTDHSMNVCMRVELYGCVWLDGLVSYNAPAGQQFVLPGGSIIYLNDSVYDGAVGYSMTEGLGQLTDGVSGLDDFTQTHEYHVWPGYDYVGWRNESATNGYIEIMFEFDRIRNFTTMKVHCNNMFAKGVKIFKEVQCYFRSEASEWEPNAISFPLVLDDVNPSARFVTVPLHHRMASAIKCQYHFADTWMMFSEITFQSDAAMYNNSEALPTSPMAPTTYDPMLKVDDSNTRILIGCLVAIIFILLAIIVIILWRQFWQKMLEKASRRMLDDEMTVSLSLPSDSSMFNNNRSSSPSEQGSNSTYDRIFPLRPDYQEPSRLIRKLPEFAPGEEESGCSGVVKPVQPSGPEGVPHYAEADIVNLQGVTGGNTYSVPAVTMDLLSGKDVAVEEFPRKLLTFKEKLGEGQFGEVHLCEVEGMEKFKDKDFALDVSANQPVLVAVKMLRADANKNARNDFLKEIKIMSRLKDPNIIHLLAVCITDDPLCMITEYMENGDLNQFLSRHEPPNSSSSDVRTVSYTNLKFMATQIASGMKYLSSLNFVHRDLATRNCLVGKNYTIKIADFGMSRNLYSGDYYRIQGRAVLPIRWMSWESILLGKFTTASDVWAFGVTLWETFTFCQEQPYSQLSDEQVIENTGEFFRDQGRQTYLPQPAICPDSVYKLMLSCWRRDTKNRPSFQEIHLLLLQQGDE
T40 sequence (Q00526 whole entry): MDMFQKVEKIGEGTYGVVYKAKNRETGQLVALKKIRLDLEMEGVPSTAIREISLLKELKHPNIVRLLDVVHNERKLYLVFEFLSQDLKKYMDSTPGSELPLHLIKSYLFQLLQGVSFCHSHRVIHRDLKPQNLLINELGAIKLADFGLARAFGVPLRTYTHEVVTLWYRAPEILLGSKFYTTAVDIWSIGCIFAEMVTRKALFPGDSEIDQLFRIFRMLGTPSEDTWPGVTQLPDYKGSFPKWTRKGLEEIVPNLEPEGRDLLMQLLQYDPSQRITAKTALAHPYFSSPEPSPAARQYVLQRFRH
T40 sequence (P24864 whole entry partner): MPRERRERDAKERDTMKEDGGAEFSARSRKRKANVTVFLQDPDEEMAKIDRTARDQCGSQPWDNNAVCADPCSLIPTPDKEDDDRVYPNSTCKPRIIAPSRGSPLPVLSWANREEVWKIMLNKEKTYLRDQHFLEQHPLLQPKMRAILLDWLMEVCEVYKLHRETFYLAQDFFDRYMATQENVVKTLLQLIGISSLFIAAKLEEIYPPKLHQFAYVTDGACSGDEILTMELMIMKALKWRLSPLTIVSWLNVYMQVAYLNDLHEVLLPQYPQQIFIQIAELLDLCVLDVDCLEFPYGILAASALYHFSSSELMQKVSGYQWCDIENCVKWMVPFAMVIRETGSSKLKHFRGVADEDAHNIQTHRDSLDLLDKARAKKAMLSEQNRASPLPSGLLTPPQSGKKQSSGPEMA
T35 sequence (Q86UE8 whole entry): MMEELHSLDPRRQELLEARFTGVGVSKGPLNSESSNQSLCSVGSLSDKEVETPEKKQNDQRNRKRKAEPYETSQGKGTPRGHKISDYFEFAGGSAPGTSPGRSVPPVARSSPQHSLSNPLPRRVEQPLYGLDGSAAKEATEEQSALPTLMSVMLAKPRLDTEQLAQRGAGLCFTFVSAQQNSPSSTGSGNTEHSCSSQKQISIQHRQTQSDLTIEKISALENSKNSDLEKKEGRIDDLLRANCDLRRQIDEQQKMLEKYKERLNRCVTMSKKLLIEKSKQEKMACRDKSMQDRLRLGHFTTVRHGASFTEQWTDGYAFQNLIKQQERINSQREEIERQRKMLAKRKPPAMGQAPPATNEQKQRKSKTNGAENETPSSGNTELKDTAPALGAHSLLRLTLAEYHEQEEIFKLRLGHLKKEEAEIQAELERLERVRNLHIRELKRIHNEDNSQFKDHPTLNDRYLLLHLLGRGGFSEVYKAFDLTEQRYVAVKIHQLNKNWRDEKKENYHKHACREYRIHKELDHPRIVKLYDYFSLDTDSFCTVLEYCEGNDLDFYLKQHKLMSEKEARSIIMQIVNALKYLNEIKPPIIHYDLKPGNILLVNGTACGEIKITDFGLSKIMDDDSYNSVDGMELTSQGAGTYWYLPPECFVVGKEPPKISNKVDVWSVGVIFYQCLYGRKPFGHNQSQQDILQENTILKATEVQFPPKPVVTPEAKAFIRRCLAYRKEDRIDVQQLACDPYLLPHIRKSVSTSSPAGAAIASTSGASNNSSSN
T41 sequence (P52333 whole entry): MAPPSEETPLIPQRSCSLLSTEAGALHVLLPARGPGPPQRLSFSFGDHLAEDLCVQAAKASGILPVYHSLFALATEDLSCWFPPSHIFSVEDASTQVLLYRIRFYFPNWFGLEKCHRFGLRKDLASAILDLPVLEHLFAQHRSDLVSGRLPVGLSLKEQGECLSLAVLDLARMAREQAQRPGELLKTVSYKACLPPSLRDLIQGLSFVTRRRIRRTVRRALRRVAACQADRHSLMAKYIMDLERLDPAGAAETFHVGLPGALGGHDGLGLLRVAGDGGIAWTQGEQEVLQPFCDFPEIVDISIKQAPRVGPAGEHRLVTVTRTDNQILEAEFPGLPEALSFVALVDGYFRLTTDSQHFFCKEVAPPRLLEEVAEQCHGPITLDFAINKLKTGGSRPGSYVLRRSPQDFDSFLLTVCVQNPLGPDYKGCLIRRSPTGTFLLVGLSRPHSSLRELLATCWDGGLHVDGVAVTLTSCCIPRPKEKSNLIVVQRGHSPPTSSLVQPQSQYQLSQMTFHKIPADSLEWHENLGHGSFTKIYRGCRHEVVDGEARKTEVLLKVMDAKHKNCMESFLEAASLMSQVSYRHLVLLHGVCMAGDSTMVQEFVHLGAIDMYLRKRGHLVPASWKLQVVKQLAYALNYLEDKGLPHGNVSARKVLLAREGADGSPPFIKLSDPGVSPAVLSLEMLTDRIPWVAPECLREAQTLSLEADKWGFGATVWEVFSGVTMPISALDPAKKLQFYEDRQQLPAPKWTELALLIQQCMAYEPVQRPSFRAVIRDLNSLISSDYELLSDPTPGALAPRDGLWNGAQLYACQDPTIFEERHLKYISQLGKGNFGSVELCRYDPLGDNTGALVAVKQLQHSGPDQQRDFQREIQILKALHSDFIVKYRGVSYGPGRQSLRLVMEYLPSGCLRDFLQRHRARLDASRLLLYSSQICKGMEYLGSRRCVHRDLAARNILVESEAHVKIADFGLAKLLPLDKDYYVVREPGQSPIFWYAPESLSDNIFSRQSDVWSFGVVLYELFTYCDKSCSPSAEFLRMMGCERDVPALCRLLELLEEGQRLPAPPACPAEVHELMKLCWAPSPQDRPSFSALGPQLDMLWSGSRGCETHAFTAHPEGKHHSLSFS
T29 sequence (Q99683 whole entry): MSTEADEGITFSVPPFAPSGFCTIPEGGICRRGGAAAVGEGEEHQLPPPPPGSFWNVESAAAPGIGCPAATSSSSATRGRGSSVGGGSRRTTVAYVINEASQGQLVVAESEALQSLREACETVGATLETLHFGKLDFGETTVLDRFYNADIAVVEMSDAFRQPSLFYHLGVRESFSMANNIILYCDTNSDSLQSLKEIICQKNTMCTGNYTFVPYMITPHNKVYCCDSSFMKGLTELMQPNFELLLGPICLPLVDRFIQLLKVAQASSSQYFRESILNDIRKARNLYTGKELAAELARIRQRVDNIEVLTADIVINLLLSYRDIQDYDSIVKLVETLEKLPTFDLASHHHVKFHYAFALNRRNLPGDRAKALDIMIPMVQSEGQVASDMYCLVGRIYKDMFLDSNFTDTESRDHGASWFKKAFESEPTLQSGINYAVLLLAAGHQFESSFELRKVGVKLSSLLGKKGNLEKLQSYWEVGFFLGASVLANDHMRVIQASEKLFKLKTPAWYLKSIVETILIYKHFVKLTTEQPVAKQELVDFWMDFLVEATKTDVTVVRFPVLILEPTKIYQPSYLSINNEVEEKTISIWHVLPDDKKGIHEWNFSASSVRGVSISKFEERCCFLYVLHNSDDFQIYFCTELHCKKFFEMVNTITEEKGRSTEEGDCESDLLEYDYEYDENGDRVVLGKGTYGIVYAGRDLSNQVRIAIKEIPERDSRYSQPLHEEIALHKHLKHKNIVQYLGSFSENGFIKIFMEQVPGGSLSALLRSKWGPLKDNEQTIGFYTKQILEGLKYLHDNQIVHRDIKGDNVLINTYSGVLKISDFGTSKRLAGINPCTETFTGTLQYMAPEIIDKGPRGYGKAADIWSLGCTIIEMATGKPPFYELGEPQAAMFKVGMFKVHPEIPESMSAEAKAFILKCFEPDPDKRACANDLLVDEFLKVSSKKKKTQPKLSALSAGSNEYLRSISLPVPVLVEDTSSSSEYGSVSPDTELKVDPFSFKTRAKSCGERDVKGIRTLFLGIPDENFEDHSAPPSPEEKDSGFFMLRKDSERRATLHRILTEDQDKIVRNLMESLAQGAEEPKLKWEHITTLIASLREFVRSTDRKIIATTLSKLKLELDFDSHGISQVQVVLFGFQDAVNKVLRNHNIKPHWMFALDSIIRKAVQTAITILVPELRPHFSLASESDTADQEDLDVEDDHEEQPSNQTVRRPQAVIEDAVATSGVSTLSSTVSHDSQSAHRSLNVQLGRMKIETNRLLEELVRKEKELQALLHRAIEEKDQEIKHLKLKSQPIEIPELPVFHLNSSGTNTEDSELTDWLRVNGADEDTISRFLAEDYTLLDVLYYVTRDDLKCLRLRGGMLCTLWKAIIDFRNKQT

Avg POC (EGFR): 111 POC
Avg POC (Axl): 122.5 POC
Avg POC (HIPK3): 105.5 POC
Avg POC (CLK2): 118 POC
Avg POC (KIT): 102.5 POC
Avg POC (EphB3): 72.5 POC
Avg POC (PKCgamma): 90 POC
Avg POC (FGFR4): 141.5 POC
Avg POC (MSSK1): 132 POC
Avg POC (ULK2): 91 POC
Avg POC (MuSK): 88 POC
Avg POC (ALK): 108 POC
Avg POC (JAK2): 147.5 POC
Avg POC (KDR): 126 POC
Avg POC (DDR2): 98 POC
Avg POC (PKD1): 97.5 POC
Avg POC (Plk1): 103.5 POC
Avg POC (CSK): 136 POC
Avg POC (eEF-2K): 151.5 POC
Avg POC (NEK11): 73.5 POC
Avg POC (PKCeta): 103.5 POC
Avg POC (DAPK2): 103.5 POC
Avg POC (CAMK1d): 132.5 POC
Avg POC (PAK6): 135 POC
Avg POC (Flt3): 98 POC
Avg POC (TAO1): 103.5 POC
Avg POC (PRKG1beta): 119 POC
Avg POC (Rse): 108 POC
Avg POC (MAP3K5): 107.5 POC
Avg POC (CK1delta): 117.5 POC
Avg POC (PRKG1alpha): 118 POC
Avg POC (Fms): 89.5 POC
Avg POC (Flt1): 104 POC
Avg POC (PKCdelta): 97 POC
Avg POC (TLK2): 98 POC
Avg POC (CHK1): 126.5 POC
Avg POC (Bmx): 129.5 POC
Avg POC (JNK2alpha2): 97.5 POC
Avg POC (TSSK1): 92 POC
Avg POC (CDK3/cyclinE): 105 POC
Avg POC (JAK3): 113 POC
SMILES: Cc1c(-c2cnn(C)c2)nn(-c2ccccc2)c1NC(=O)Nc1sc(C(F)(F)F)nc1-c1ccccc1 [Example 2, 1-(1′,4-dimethyl-1-phenyl-1H,1′H-[3,4′-bipyrazol]-5-yl)-3-(4-phenyl-2-(trifluoromethyl)thiazol-5-yl)urea]
